Test results reported in the supplement of paper PMC10307832.

Tests used:
Experiment in all cases: relative viability (nuclei count vs DMSO), 5 days (fraction); higher = more cells survive
Serdemetan + OSI-027 = compound: c1ccc2c(CCNc3ccc(Nc4ccncc4)cc3)c[nH]c2c1 [Serdemetan] + COc1cccc2cc(-c3nc([C@H]4CC[C@H](C(=O)O)CC4)n4ncnc(N)c34)[nH]c12 [OSI-027] (partner 0.5 µM)
How it was run: (§1)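 Lung cancer cell lines, seeded in 1536-well plates, were treated the following day by pin tool with a single drug or with five library-drug doses (not always all listed) in √10 steps on top of a fixed anchor-drug dose. Cells were fixed and nuclei stained in one step after 5 days, and nuclei were counted. Relative viability is the nuclei count for treated wells divided by that for vehicle wells, reported as medians of duplicate plates.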

Selisistat + Luminespib = compound: C1CC(C2=C(C1)C3=C(N2)C=CC(=C3)Cl)C(=O)N [Selisistat] + CCNC(=O)c1noc(-c2cc(C(C)C)c(O)cc2O)c1-c1ccc(CN2CCOCC2)cc1 [Luminespib] (partner 0.01 µM)
How it was run: as §1

Selisistat + Pictilisib = compound: C1CC(C2=C(C1)C3=C(N2)C=CC(=C3)Cl)C(=O)N [Selisistat] + CS(=O)(=O)N1CCN(Cc2cc3nc(-c4cccc5[nH]ncc45)nc(N4CCOCC4)c3s2)CC1 [Pictilisib] (partner 1 µM)
How it was run: as §1

Serdemetan + AZD7762 = compound: c1ccc2c(CCNc3ccc(Nc4ccncc4)cc3)c[nH]c2c1 [Serdemetan] + NC(=O)Nc1cc(-c2cccc(F)c2)sc1C(=O)N[C@H]1CCCNC1 [AZD7762] (partner 0.2 µM)
How it was run: as §1

| Cell Line | relative viability (Serdemetan + OSI-027; first compound 0.04 µM) | relative viability (Serdemetan + OSI-027; first compound 0.1265 µM) | relative viability (Serdemetan + OSI-027; first compound 0.4 µM) | relative viability (Serdemetan + OSI-027; first compound 1.265 µM) | relative viability (Serdemetan + OSI-027; first compound 4 µM) | relative viability (Selisistat + Luminespib; first compound 0.4 µM) | relative viability (Selisistat + Luminespib; first compound 1.265 µM) | relative viability (Selisistat + Luminespib; first compound 4 µM) | relative viability (Selisistat + Luminespib; first compound 12.65 µM) | relative viability (Selisistat + Luminespib; first compound 40 µM) | relative viability (Selisistat + Pictilisib; first compound 0.4 µM) | relative viability (Selisistat + Pictilisib; first compound 1.265 µM) | relative viability (Selisistat + Pictilisib; first compound 4 µM) | relative viability (Selisistat + Pictilisib; first compound 12.65 µM) | relative viability (Selisistat + Pictilisib; first compound 40 µM) | relative viability (Serdemetan + AZD7762; first compound 0.04 µM) | relative viability (Serdemetan + AZD7762; first compound 0.1265 µM) | relative viability (Serdemetan + AZD7762; first compound 0.4 µM) | relative viability (Serdemetan + AZD7762; first compound 1.265 µM) | relative viability (Serdemetan + AZD7762; first compound 4 µM) |
| --- | --- | --- | --- | --- | --- | --- | --- | --- | --- | --- | --- | --- | --- | --- | --- | --- | --- | --- | --- | --- |
| NCI-H1651 | 0.627 | 0.571 | 0.777 | 0.369 | 0.313 | 1.06 | 0.827 | 0.836 | 0.848 | 0.802 | 0.595 | 0.596 | 0.48 | 0.553 | 0.516 | 0.375 | 0.286 | 0.363 | 0.248 | 0.213 |
| NCI-H1666 | 0.898 | 0.887 | 0.847 | 0.667 | 0.771 | 1.05 | 1 | 0.969 | 0.995 | 0.878 | 0.421 | 0.401 | 0.312 | 0.423 | 0.318 | 0.812 | 0.721 | 0.731 | 0.691 | 0.634 |
| NCI-H1734 | 0.586 | 0.523 | 0.554 | 0.138 | 0.196 | 0.173 | 0.194 | 0.223 | 0.208 | 0.216 | 0.479 | 0.488 | 0.404 | 0.486 | 0.445 | 0.375 | 0.268 | 0.266 | 0.104 | 0.144 |
| NCI-H1755 | 0.725 | 0.687 | 0.686 | 0.563 | 0.568 | 0.415 | 0.315 | 0.619 | 0.31 | 0.377 | 0.439 | 0.414 | 0.363 | 0.451 | 0.443 | 0.461 | 0.45 | 0.492 | 0.288 | 0.389 |
| NCI-H1792 | 0.752 | 0.718 | 0.677 | 0.42 | 0.426 | 0.406 | 0.52 |  | 0.536 | 0.399 | 0.327 | 0.281 |  | 0.251 | 0.279 | 0.674 | 0.59 | 0.63 | 0.326 | 0.324 |
| NCI-H1793 | 0.385 | 0.251 | 0.236 | 0.186 | 0.179 | 0.185 | 0.166 |  | 0.217 | 0.234 | 0.311 | 0.275 |  | 0.287 | 0.516 | 0.367 | 0.313 | 0.335 | 0.181 | 0.192 |
| NCI-H1915 | 0.683 | 0.688 | 0.586 | 0.362 | 0.566 | 0.839 | 0.775 | 0.775 | 0.695 | 0.75 | 0.913 | 0.965 | 0.533 | 0.892 | 0.95 | 0.685 | 0.656 | 0.763 | 0.536 | 0.503 |
| NCI-H1944 | 0.435 | 0.42 | 0.394 | 0.331 | 0.379 | 0.743 | 0.58 |  | 0.653 | 0.615 | 0.335 | 0.363 |  | 0.346 | 0.395 | 0.43 | 0.647 | 0.626 | 0.291 | 0.281 |
| NCI-H1975 | 0.851 | 0.753 | 0.775 |  | 0.711 | 0.147 | 0.301 | 0.168 | 0.131 | 0.337 | 0.322 | 0.315 | 0.236 | 0.301 | 0.265 | 0.635 | 0.769 | 0.717 | 0.769 | 0.72 |
| NCI-H1993 | 0.552 | 0.614 | 0.665 | 0.521 | 0.533 | 0.868 | 0.685 | 0.831 | 1.06 | 0.846 | 0.702 | 0.81 |  | 0.828 | 0.854 | 0.789 | 0.897 | 0.588 | 0.778 | 0.726 |
| NCI-H2085 | 0.701 | 0.702 | 0.593 | 0.61 | 0.764 | 0.569 | 0.406 | 0.47 | 0.452 | 0.4 | 0.524 | 0.406 | 0.454 | 0.575 | 0.467 | 0.995 | 0.916 | 0.974 | 0.801 | 0.792 |
| NCI-H2087 | 0.548 | 0.641 | 0.573 | 0.324 | 0.241 | 0.157 | 0.139 |  | 0.147 | 0.158 | 0.977 | 0.911 | 0.321 | 0.873 | 0.841 | 1.23 | 0.828 | 0.778 | 0.494 | 0.535 |
| NCI-H2126 | 0.7 | 0.757 | 0.611 | 0.574 | 0.625 | 0.929 | 0.972 | 0.872 | 0.947 | 0.965 | 0.525 | 0.496 | 0.398 | 0.526 | 0.584 | 0.924 | 1.04 | 0.923 | 0.932 | 1.04 |
| NCI-H2170 | 0.686 | 0.737 | 0.635 | 0.367 | 0.73 | 0.653 | 0.726 | 0.76 | 0.843 | 0.696 | 0.323 | 0.338 | 0.275 | 0.303 | 0.378 | 0.891 | 0.964 | 0.873 | 0.746 | 0.758 |
| NCI-H2347 | 0.412 | 0.501 | 0.431 | 0.4 | 0.258 | 0.322 | 0.406 | 0.186 | 0.283 | 1.01 | 0.374 | 0.714 | 0.294 | 0.541 | 0.56 | 0.673 | 0.686 | 0.668 | 0.462 | 0.406 |
| NCI-H2405 | 0.591 | 0.602 | 0.657 | 0.622 | 0.594 | 0.745 | 0.691 | 0.556 | 0.659 | 0.766 | 0.431 |  |  | 0.441 | 0.431 | 0.747 | 0.721 | 0.721 | 0.683 | 0.625 |
